The experiment concerns DU-145 prostate cancer cell line. Briefly: FACS analysis with annexin V-FITC kit (apoptosis). In kind it is cell-based, human. The following applies: analysis after 4 h. The procedure: Cells (DU-145) were seeded in 6-well microtiter plates (5×10^4 cells/mL; 3 mL per well) 24 h before the addition of assigned compounds/albumin particles. At the time of drug treatment, stock solutions of compounds were diluted to 10-fold the desired final test concentrations with EMEM medium. Aliquots of 300 μL of these diluted solutions were added to the appropriate microtiter wells containing 2700 μL of medium, resulting in the required final drug concentrations (according to assigned concentration). The final concentration of DMSO (given that the compound required DMSO for solvation) in test culture was <1%. […] Following 24-72 h of exposure at 37° C., cells were re-suspended with trypsin into PBS pH 7.2 and pelleted at 3000 rpm for 5 min. Samples were washed under PBS×3 times. Samples were taken for measurement using a BD LSR-II Analyzer supported with BD FACSDiVa™ Software Version 6.1 for data analysis. Corrole fluorescence was measured using appropriate filters for excitation (405 nm, DAPI) and emission (Ds-RED). FIGS. 15A-F present FACS analysis of DU-145 prostate cancer cell line treated with an annexin V-FITC kit after 4 h incubation with: HSA control; FIGS. 15B-F present 5-Ga HSA NP's 2, 5, 10, 15, 20 μM respectively. […] Analysis of β-lapachone was done after 4 h since it induces apoptosis faster.

Experimental findings from US20200345846A1, “CORROLE COMPOSITIONS” (TECHNION RESEARCH & DEVELOPMENT FOUNDATION LIMITED, priority 2017, published 2020) are described below.

Regarding `CC1(C)CCC2=C(O1)c1ccccc1C(=O)C2=O` [Corrole 0-lapachone, β-lapachone], the “shift of annexin V-FITC distribution curve” value is “strong shift of the distribution curve towards stronger mean fluorescence”.
